Laboratory results reported in the supplement of paper PMC4862054.

Experiments:
Conditions in all cases: incubation time: 72 h
[1] = tested on: CAL-85-1; assay: normalised viability (% of control), CellTiter-Blue; higher = more viable cells (100 = DMSO, 0 = benzethonium chloride kill control)
Summary of the method: (§1)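 Normalised viability is given for a single listed concentration of the series. In 384-well plates, breast cancer cell lines were incubated 72 h with compound, then read with CellTiter-Blue (2 h, 37 °C) at 560/590 nm. Per-plate scaling set vehicle to 100 and a positive kill control to 0, with Z'-factor quality control.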

[2] = tested on: CAL-120; assay: as above
Summary of the method: as §1

[3] = tested on: MDA-MB-453; assay: as above
Summary of the method: as §1

[4] = tested on: MDA-MB-231; assay: as above
Summary of the method: as §1

[5] = tested on: MDA-MB-436; assay: as above
Summary of the method: as §1

[6] = tested on: SK-BR-3; assay: as above
Summary of the method: as §1

[7] = tested on: MFM-223; assay: as above
Summary of the method: as §1

[8] = tested on: HCC1599; assay: as above
Summary of the method: as §1

[9] = tested on: MDA-MB-468; assay: as above
Summary of the method: as §1

[10] = tested on: DU-4475; assay: as above
Summary of the method: as §1

[11] = tested on: HCC1937; assay: as above
Summary of the method: as §1

[12] = tested on: HDQ-P1; assay: as above
Summary of the method: as §1

[13] = tested on: Hs578T; assay: as above
Summary of the method: as §1

[14] = tested on: HCC1143; assay: as above
Summary of the method: as §1

[15] = tested on: BT-549; assay: as above
Summary of the method: as §1

[16] = tested on: CAL-51; assay: as above
Summary of the method: as §1

[17] = tested on: BT-474; assay: as above
Summary of the method: as §1

[18] = tested on: CAL-148; assay: as above
Summary of the method: as §1

[19] = tested on: CAL-85-1; assay: normalised response (% of control), CellTiter-Glo; higher = more viable cells (100 = DMSO, 0 = benzethonium chloride kill control)
Summary of the method: (§2)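 Breast cancer cell lines in 20 µl suspension were added to 384-well plates containing compound at 5 concentrations, spaced in 10-fold steps across a 10,000-fold range chosen for each compound, and incubated for 72 h. CellTox Green fluorescence was read at 485/520 nm, followed by CellTiter-Glo luminescence after 10 min at room temperature. Signals on each plate were normalised so that 0.1 % DMSO equals 100 and a positive kill control equals 0. Every value in the table is the normalised signal at one concentration of the series.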

[20] = tested on: CAL-120; assay: as above
Summary of the method: as §2

[21] = tested on: MDA-MB-453; assay: as above
Summary of the method: as §2

[22] = tested on: MDA-MB-231; assay: as above
Summary of the method: as §2

[23] = tested on: MDA-MB-436; assay: as above
Summary of the method: as §2

[24] = tested on: SK-BR-3; assay: as above
Summary of the method: as §2

[25] = tested on: MFM-223; assay: as above
Summary of the method: as §2

[26] = tested on: HCC1599; assay: as above
Summary of the method: as §2

[27] = tested on: MDA-MB-468; assay: as above
Summary of the method: as §2

[28] = tested on: DU-4475; assay: as above
Summary of the method: as §2

[29] = tested on: HCC1937; assay: as above
Summary of the method: as §2

[30] = tested on: HDQ-P1; assay: as above
Summary of the method: as §2

[31] = tested on: Hs578T; assay: as above
Summary of the method: as §2

[32] = tested on: HCC1143; assay: as above
Summary of the method: as §2

[33] = tested on: MCF-10A; assay: as above
Summary of the method: as §2

[34] = tested on: BT-549; assay: as above
Summary of the method: as §2

[35] = tested on: CAL-51; assay: as above
Summary of the method: as §2

[36] = tested on: BT-474; assay: as above
Summary of the method: as §2

[37] = tested on: CAL-148; assay: as above
Summary of the method: as §2

COC(=O)C[C@](O)(CCCC(C)(C)O)C(=O)O[C@@H]1C(OC)=C[C@]23CCCN2CCc2cc4c(cc2[C@H]13)OCO4 [Omacetaxine] (1 nM)
normalised viability [1]: 90.6%
normalised viability [2]: 82%
normalised viability [3]: 91.6%
normalised viability [4]: 97.3%
normalised viability [5]: 91.1%
normalised viability [6]: 97.3%
normalised viability [7]: 90.3%
normalised viability [8]: 78.4%
normalised viability [9]: 95.2%
normalised viability [10]: 93.6%
normalised viability [11]: 96.5%
normalised viability [12]: 84.7%
normalised viability [13]: 106%
normalised viability [14]: 91.7%
normalised viability [15]: 95.4%
normalised viability [16]: 96.3%
normalised viability [17]: 101%
normalised viability [18]: 107%
normalised response [19]: 101%
normalised response [20]: 99.8%
normalised response [21]: 121%
normalised response [22]: 104%
normalised response [23]: 97.1%
normalised response [24]: 108%
normalised response [25]: 103%
normalised response [26]: 88.4%
normalised response [27]: 108%
normalised response [28]: 96%
normalised response [29]: 98.3%
normalised response [30]: 104%
normalised response [31]: 101%
normalised response [32]: 109%
normalised response [33]: 108%
normalised response [34]: 92.1%
normalised response [35]: 79.9%
normalised response [36]: 106%
normalised response [37]: 110%

CC(=O)O[C@H]1C(=O)[C@@]2(C)[C@H]([C@H](OC(=O)c3ccccc3)[C@]3(O)C[C@H](OC(=O)[C@H](O)[C@@H](NC(=O)c4ccccc4)c4ccccc4)C(C)=C1C3(C)C)[C@]1(OC(C)=O)CO[C@@H]1C[C@@H]2O [Paclitaxel] (0.1 nM)
normalised viability [1]: 98.2%
normalised viability [2]: 90.6%
normalised viability [3]: 97.5%
normalised viability [4]: 73.8%
normalised viability [5]: 95.8%
normalised viability [6]: 90.2%
normalised viability [7]: 93.9%
normalised viability [8]: 102%
normalised viability [9]: 105%
normalised viability [10]: 115%
normalised viability [11]: 84.3%
normalised viability [12]: 82.6%
normalised viability [13]: 103%
normalised viability [14]: 106%
normalised viability [15]: 116%
normalised viability [16]: 93.8%
normalised viability [17]: 82%
normalised viability [18]: 106%
normalised response [19]: 99.2%
normalised response [20]: 89.7%
normalised response [21]: 89.9%
normalised response [22]: 96.6%
normalised response [23]: 98.7%
normalised response [24]: 88.4%
normalised response [25]: 89.9%
normalised response [26]: 100%
normalised response [27]: 95.7%
normalised response [28]: 93.8%
normalised response [29]: 90.5%
normalised response [30]: 96.4%
normalised response [31]: 100%
normalised response [32]: 93.6%
normalised response [33]: 87.9%
normalised response [34]: 100%
normalised response [35]: 103%
normalised response [36]: 95.5%
normalised response [37]: 89.6%

CC(C)(C)c1cc(NC(=O)Nc2ccc(-c3cn4c(n3)sc3cc(OCCN5CCOCC5)ccc34)cc2)no1 [Quizartinib] (0.1 nM)
normalised viability [1]: 89.4%
normalised viability [2]: 99.7%
normalised viability [3]: 113%
normalised viability [4]: 105%
normalised viability [5]: 98.1%
normalised viability [6]: 90.9%
normalised viability [7]: 81.8%
normalised viability [8]: 89.4%
normalised viability [9]: 92.3%
normalised viability [10]: 117%
normalised viability [11]: 109%
normalised viability [12]: 74.7%
normalised viability [13]: 120%
normalised viability [14]: 99.6%
normalised viability [15]: 92.8%
normalised viability [16]: 103%
normalised viability [17]: 115%
normalised viability [18]: 105%
normalised response [19]: 110%
normalised response [20]: 103%
normalised response [21]: 105%
normalised response [22]: 106%
normalised response [23]: 101%
normalised response [24]: 109%
normalised response [25]: 108%
normalised response [26]: 112%
normalised response [27]: 107%
normalised response [28]: 104%
normalised response [29]: 103%
normalised response [30]: 99.5%
normalised response [31]: 99.8%
normalised response [32]: 100%
normalised response [33]: 101%
normalised response [34]: 96.2%
normalised response [35]: 87.7%
normalised response [36]: 108%
normalised response [37]: 110%

O=C(c1ccc(OCCN2CCCCC2)cc1)c1c(-c2ccc(O)cc2)sc2cc(O)ccc12 [Raloxifene] (1 nM)
normalised viability [1]: 103%
normalised viability [2]: 90.7%
normalised viability [3]: 85%
normalised viability [4]: 87.1%
normalised viability [5]: 91.6%
normalised viability [6]: 90.8%
normalised viability [7]: 91.2%
normalised viability [8]: 101%
normalised viability [9]: 105%
normalised viability [10]: 110%
normalised viability [11]: 88.3%
normalised viability [12]: 101%
normalised viability [13]: 99.8%
normalised viability [14]: 86.1%
normalised viability [15]: 95.2%
normalised viability [16]: 96.8%
normalised viability [17]: 71.6%
normalised viability [18]: 98.2%
normalised response [19]: 101%
normalised response [20]: 97.9%
normalised response [21]: 105%
normalised response [22]: 101%
normalised response [23]: 105%
normalised response [24]: 110%
normalised response [25]: 99.6%
normalised response [26]: 97%
normalised response [27]: 101%
normalised response [28]: 102%
normalised response [29]: 102%
normalised response [30]: 107%
normalised response [31]: 108%
normalised response [32]: 109%
normalised response [33]: 109%
normalised response [34]: 104%
normalised response [35]: 114%
normalised response [36]: 99.7%
normalised response [37]: 108%

Cn1c(=O)c(F)c(Nc2ccc(I)cc2F)c2c(=O)n(C[C@@H](O)CO)cnc21 [TAK-733] (0.1 nM)
normalised viability [1]: 90.7%
normalised viability [2]: 87.1%
normalised viability [3]: 111%
normalised viability [4]: 105%
normalised viability [5]: 105%
normalised viability [6]: 97.9%
normalised viability [7]: 99.9%
normalised viability [8]: 73.2%
normalised viability [9]: 95.8%
normalised viability [10]: 112%
normalised viability [11]: 88.7%
normalised viability [12]: 120%
normalised viability [13]: 128%
normalised viability [14]: 101%
normalised viability [15]: 101%
normalised viability [16]: 101%
normalised viability [17]: 68.7%
normalised viability [18]: 105%
normalised response [19]: 96.6%
normalised response [20]: 98%
normalised response [21]: 115%
normalised response [22]: 105%
normalised response [23]: 96.2%
normalised response [24]: 111%
normalised response [25]: 108%
normalised response [26]: 94.3%
normalised response [27]: 102%
normalised response [28]: 99.4%
normalised response [29]: 100%
normalised response [30]: 97.1%
normalised response [31]: 101%
normalised response [32]: 102%
normalised response [33]: 114%
normalised response [34]: 91.8%
normalised response [35]: 74%
normalised response [36]: 103%
normalised response [37]: 104%

CCS(=O)(=O)c1cccc(-c2cc(C(=O)NC3CCN(C)CC3)c(C)c3[nH]c4ncc(C)cc4c23)c1 [TAK-901] (0.1 nM)
normalised viability [1]: 83.7%
normalised viability [2]: 87.2%
normalised viability [3]: 96.1%
normalised viability [4]: 104%
normalised viability [5]: 108%
normalised viability [6]: 92%
normalised viability [7]: 96.7%
normalised viability [8]: 87%
normalised viability [9]: 95.9%
normalised viability [10]: 85.1%
normalised viability [11]: 105%
normalised viability [12]: 111%
normalised viability [13]: 109%
normalised viability [14]: 94.9%
normalised viability [15]: 112%
normalised viability [16]: 90.9%
normalised viability [17]: 76.6%
normalised viability [18]: 102%
normalised response [19]: 103%
normalised response [20]: 97.4%
normalised response [21]: 117%
normalised response [22]: 101%
normalised response [23]: 93.8%
normalised response [24]: 113%
normalised response [25]: 106%
normalised response [26]: 108%
normalised response [27]: 100%
normalised response [28]: 106%
normalised response [29]: 91.8%
normalised response [30]: 98.9%
normalised response [31]: 111%
normalised response [32]: 108%
normalised response [33]: 109%
normalised response [34]: 106%
normalised response [35]: 122%
normalised response [36]: 101%
normalised response [37]: 101%
